Measured values published in patent publication US8710043B2, “TRPM8 antagonists and their use in treatments” (Amgen Inc., priority 2011, dated 2014).
pIC50: −log10 of the molar value. Counter-ions that a name gives are not always drawn.

Biological target: T1, human TRPM8 (Homo sapiens, UniProt Q7Z2W7)
T1 construct: expressed in transfected cells; host or cells: Chinese hamster ovary (CHO) cells, T-REx tetracycline-inducible system, co-transfected with aequorin
Assay: Luminescence readout assay for measuring intracellular calcium, icilin activation
Type: cell-based
Conditions: CHO cells expressing human TRPM8, aequorin luminescence, 1 μM icilin activation; read-out: hTRPM8 IC50
Method: Luminescence Readout Assay for Measuring Intracellular Calcium.
A stable Chinese hamster ovary cell line expressing human TRPM8 was generated using tetracycline inducible T-REx™ expression system from Invitrogen, Inc. (Carlsbad, Calif.). […] Twenty four hours before the assay, cells were seeded in 96-well plates and TRPM8 expression was induced with 0.5 μg/mL tetracycline. […] Potential antagonists were added 2.5 min prior to the addition of agonist, 1 μM icilin, 100 μM L-menthol, or 1 min prior to the addition of cold buffer (<10° C.). The luminescence was measured by a CCD camera based FLASH-luminometer built by Amgen, Inc. A cooling device attached to FLASH luminometer was used for cold activation.

T1 sequence (Q7Z2W7 whole entry): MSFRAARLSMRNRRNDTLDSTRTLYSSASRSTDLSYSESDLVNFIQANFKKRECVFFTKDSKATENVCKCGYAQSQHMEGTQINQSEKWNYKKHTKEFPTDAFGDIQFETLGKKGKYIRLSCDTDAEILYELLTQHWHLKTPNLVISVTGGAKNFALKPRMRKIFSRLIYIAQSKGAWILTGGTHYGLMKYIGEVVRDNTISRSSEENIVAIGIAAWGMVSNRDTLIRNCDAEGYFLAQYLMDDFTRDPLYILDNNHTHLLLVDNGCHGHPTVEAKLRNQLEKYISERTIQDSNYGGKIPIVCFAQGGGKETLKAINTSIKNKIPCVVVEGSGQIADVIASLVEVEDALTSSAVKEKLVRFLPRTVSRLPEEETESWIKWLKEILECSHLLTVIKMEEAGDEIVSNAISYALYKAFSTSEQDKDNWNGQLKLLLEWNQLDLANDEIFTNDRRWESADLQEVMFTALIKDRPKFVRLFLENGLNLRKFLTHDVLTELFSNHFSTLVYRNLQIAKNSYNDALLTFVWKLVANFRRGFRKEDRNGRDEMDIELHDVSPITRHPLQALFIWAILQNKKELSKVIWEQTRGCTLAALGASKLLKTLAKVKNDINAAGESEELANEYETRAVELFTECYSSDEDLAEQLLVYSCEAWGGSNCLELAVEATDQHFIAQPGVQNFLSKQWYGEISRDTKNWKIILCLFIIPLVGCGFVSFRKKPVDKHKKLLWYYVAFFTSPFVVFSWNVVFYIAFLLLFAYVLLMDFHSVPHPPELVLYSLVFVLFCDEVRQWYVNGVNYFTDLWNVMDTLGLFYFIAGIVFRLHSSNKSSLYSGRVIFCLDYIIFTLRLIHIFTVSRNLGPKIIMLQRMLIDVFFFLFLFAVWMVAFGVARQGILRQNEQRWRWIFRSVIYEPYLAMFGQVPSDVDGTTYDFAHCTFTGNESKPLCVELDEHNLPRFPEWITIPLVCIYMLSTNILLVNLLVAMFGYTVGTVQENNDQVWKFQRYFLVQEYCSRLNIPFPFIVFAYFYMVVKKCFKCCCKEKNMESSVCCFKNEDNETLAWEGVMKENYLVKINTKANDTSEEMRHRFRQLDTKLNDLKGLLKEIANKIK

Going from `COc1ccc([C@H](NC(=O)c2ccc(=O)[nH]c2)c2ncccc2F)cc1` [Example 342, (S)-N-((3-fluoropyridin-2-yl)(4-methoxyphenyl)methyl)-6-oxo-1,6-dihydropyridine-3-carboxamide] to `COc1cccc(C(=O)NC(c2ccc(C(F)(F)F)cc2)c2ncccc2F)c1` (stereo not drawn) [Example 214, N-((3-fluoropyridin-2-yl)(4-(trifluoromethyl)phenyl)methyl)-3-methoxybenzamide], the pIC50 rises from 6.59 to 6.92 (0.33 log units). The second is the more potent here.

First: Cc1cc(C)n2nc(C(=O)N[C@@H](c3ccc(C(F)(F)F)cc3)c3ncccc3C(F)(F)F)cc2n1 [Example 149, (S)-5,7-dimethyl-N-((4-(trifluoromethyl)phenyl)(3-(trifluoromethyl)pyridin-2-yl)methyl)pyrazolo[1,5-a]pyrimidine-2-carboxamide]
Second: Cc1cc(C(=O)N[C@@H](c2ccc(C(F)(F)F)cc2)c2ncccc2C(F)(F)F)ccn1 [Example 39, (S)-2-methyl-N-((4-(trifluoromethyl)phenyl)(3-(trifluoromethyl)pyridin-2-yl)methyl)isonicotinamide]
The pIC50 of the first is 1.35 log units lower: 6.40 for the first, 7.75 for the second. The second is the more potent here.

Compared with `O=C(N[C@@H](c1ccc(OC(F)(F)F)c(F)c1)c1ncccc1F)c1c[nH]c(=O)c(Cl)c1` [Example 401, (S)-5-chloro-N-((3-fluoro-4-(trifluoromethoxy)phenyl)(3-fluoropyridin-2-yl)methyl)-6-oxo-1,6-dihydropyridine-3-carboxamide], `Cc1c[nH]c(C(=O)N[C@@H](c2ccc(OC(F)(F)F)c(F)c2)c2ncccc2F)n1` [Example 388, (S)-N-((3-fluoro-4-(trifluoromethoxy)phenyl)(3-fluoropyridin-2-yl)methyl)-4-methyl-1H-imidazole-2-carboxamide 2,2,2-trifluoroacetate] is 2.36 log units lower in pIC50: 7.89 for the first, 5.53 for the second. The first is the more potent here.

Going from `O=C1COc2cc(C(=O)N[C@@H](c3ccc(C(F)(F)F)cc3)c3ncccc3F)ccc2N1` [Example 73, (S)-N-((3-fluoropyridin-2-yl)(4-(trifluoromethyl)phenyl)methyl)-3-oxo-3,4-dihydro-2H-benzo[b][1,4]oxazine-7-carboxamide] to `O=C1Cc2cc(C(=O)N[C@@H](c3ccc(C(F)(F)F)cc3)c3ncccc3C(F)(F)F)ccc2N1` [Example 56, (S)-2-oxo-N-((4-(trifluoromethyl)phenyl)(3-(trifluoromethyl)pyridin-2-yl)methyl)indoline-5-carboxamide], the pIC50 rises from 7.77 to 8.04 (0.27 log units). The second is the more potent here.

`O=C(N[C@@H](c1ccc(C(F)(F)F)cc1)c1ncccc1C(F)(F)F)c1cc(O)ccn1` [Example 62, (S)-4-hydroxy-N-((4-(trifluoromethyl)phenyl)(3-(trifluoromethyl)pyridin-2-yl)methyl)picolinamide] and `COc1ccnc(C(=O)N[C@@H](c2ccc(C(F)(F)F)cc2)c2ncccc2C(F)(F)F)c1` [Example 32, (S)-4-methoxy-N-((4-(trifluoromethyl)phenyl)(3-(trifluoromethyl)pyridin-2-yl)methyl)picolinamide] are within 0.2 log units of each other in pIC50: 6.76 for the first, 6.84 for the second.

Going from `CN(C)c1ccc(C(=O)N[C@@H](c2ccc(C(F)(F)F)cc2)c2ncccc2C(F)(F)F)cn1` [Example 262, (S)-6-(Dimethylamino)-N-((4-(trifluoromethyl)phenyl)(3-(trifluoromethyl)pyridin-2-yl)methyl)nicotinamide] to `O=C(N[C@@H](c1ccc(C(F)(F)F)cc1)c1ncccc1C(F)(F)F)c1ccc(Cl)cc1` [Example 185, (S)-4-chloro-N-((4-(trifluoromethyl)phenyl)(3-(trifluoromethyl)pyridin-2-yl)methyl)benzamide], the pIC50 rises from 6.94 to 7.54 (0.60 log units). The second is the more potent here.

First: O=C(N[C@@H](c1ccc(C(F)(F)F)c(F)c1)c1ncccc1C(F)(F)F)[C@@H]1CCCO1 [Example 119, (S)-N-((S)-(3-fluoro-4-(trifluoromethyl)phenyl)(3-(trifluoromethyl)pyridin-2-yl)methyl)THF-2-carboxamide]
Second: O=C(N[C@@H](c1ccc(C(F)(F)F)cc1)c1ncccc1C(F)(F)F)C1CCC(O)CC1 (stereo partly drawn) [Example 242, (S)-4-hydroxy-N-((4-(trifluoromethyl)phenyl)(3-(trifluoromethyl)pyridin-2-yl)methyl)cyclohexanecarboxamide]
The pIC50 of the first is 1.01 log units higher: 7.00 for the first, 5.99 for the second. The first is the more potent here.

Compared with `Cc1cc([C@H](NC(=O)c2ccc(=O)n(C)c2)c2ncccc2F)ccc1F` [Example 339, (S)-N-((4-fluoro-3-methylphenyl)(3-fluoropyridin-2-yl)methyl)-1-methyl-6-oxo-1,6-dihydropyridine-3-carboxamide], `COc1ccc([C@H](NC(=O)c2ccc(=O)n(C)c2)c2ncccc2F)cc1F` [Example 337, (S)-N-((3-fluoro-4-methoxyphenyl)(3-fluoropyridin-2-yl)methyl)-1-methyl-6-oxo-1,6-dihydropyridine-3-carboxamide] is 0.46 log units higher in pIC50: 6.04 for the first, 6.50 for the second. The second is the more potent here.

`C[C@H](O)Cn1cc(C(=O)N[C@@H](c2ccc(OC(F)(F)F)c(F)c2)c2ncccc2F)ccc1=O` [Example 298, N-((S)-(3-fluoro-4-(trifluoromethoxy)phenyl)(3-fluoropyridin-2-yl)methyl)-1-((S)-2-hydroxypropyl)-6-oxo-1,6-dihydropyridine-3-carboxamide] and `C[C@@H](O)Cn1cc(C(=O)N[C@@H](c2ccc(C(F)(F)F)cc2)c2ncccc2F)ccc1=O` [Example 301, N-((S)-(3-fluoropyridin-2-yl)(4-(trifluoromethyl)phenyl)methyl)-1-((R)-2-hydroxypropyl)-6-oxo-1,6-dihydropyridine-3-carboxamide] are within 0.2 log units of each other in pIC50: 7.44 for the first, 7.38 for the second.

Compared with `O=C(N[C@@H](c1ccc(C(F)(F)F)cc1)c1ncccc1F)c1c[nH]c2ncccc12` [Example 54, (S)-N-((3-fluoropyridin-2-yl)(4-(trifluoromethyl)phenyl)methyl)-1H-pyrrolo[2,3-b]pyridine-3-carboxamide], `O=C(N[C@@H](c1ccc(C(F)(F)F)cc1)c1ncccc1C(F)(F)F)c1cc2cccnc2[nH]1` [Example 66, (S)-N-((4-(trifluoromethyl)phenyl)(3-(trifluoromethyl)pyridin-2-yl)methyl)-1H-pyrrolo[2,3-b]pyridine-2-carboxamide] is 1.25 log units lower in pIC50: 7.64 for the first, 6.39 for the second.

Compared with `COC(=O)c1ccc(C(=O)N[C@@H](c2ccc(OC(F)(F)F)c(F)c2)c2ncccc2F)nc1` [Example 398, (S)-methyl 6-(((3-fluoro-4-(trifluoromethoxy)phenyl)(3-fluoropyridin-2-yl)methyl)carbamoyl)nicotinate], `O=C(O)c1cccc(C(=O)N[C@@H](c2ccc(OC(F)(F)F)c(F)c2)c2ncccc2F)n1` [Example 415, (S)-6-(((3-fluoro-4-(trifluoromethoxy)phenyl)(3-fluoropyridin-2-yl)methyl)carbamoyl)picolinic acid trifluoroacetate] is 0.53 log units lower in pIC50: 6.72 for the first, 6.19 for the second. The first is the more potent here.

`CCCN1C(=O)c2ccc(C(=O)N[C@@H](c3ccc(C(F)(F)F)cc3)c3ncccc3C(F)(F)F)cc2C1=O` [Example 269, (S)-1,3-Dioxo-2-propyl-N-((4-(trifluoromethyl)phenyl)(3-(trifluoromethyl)pyridin-2-yl)methyl)isoindoline-5-carboxamide] and `O=C(N[C@@H](c1ccc(C(F)(F)F)cc1)c1ncccc1C(F)(F)F)c1ccc(=O)[nH]n1` [Example 150, (S)-6-oxo-N-((4-(trifluoromethyl)phenyl)(3-(trifluoromethyl)pyridin-2-yl)methyl)-1,6-dihydropyridazine-3-carboxamide] are within 0.2 log units of each other in pIC50: 6.87 for the first, 6.75 for the second.
